Measurements reported in patent publication US12365680B2, “Polymorphs of the hydrochloride salt of linaprazan glurate” (Cinclus Pharma Holding AB (Publ), priority 2021, dated 2025).
“Also recorded” adds a separate entry of the source. Structures can show the parent of a compound that is named as a salt. Blank lines part the entries; values can stand above or below the compound they belong to.

Key:
[1] = cited from earlier work
[2] = Solubility of free base and HCl salt in media simulating gastric fluid (FaSSGF, FeDSGA); assay type: physicochemical; conditions: after 1 hour
Procedure: For solubility studies, HPLC was performed using an Agilent 1100 series Liquid Chromatography system, equipped with DAD spectrometer. Analyses were performed using a Waters X Bridge BEH C18 column (4.6×100 mm, 2.5 μm) at 30° C. Mobile phase: A=0.1% formic acid in water, B=0.1% formic acid in acetonitrile. Flow rate 0.8 mL/min. Mobile phase program:
The solubility of the crystalline free base (Form A) and the crystalline HCl salt of linaprazan glurate (mixture of Forms 1 and 2) was studied in Fasted State Simulated Gastric Fluid (FaSSGF, Biorelevant, batch FFF-0119-B; pH 1.6) and Fed State Gastric Acid (FeDSGA, Biorelevant, batch FEDGAS-120-A; pH 5.0).
Saturated solutions were prepared in 4 mL vials by adding a fixed weight of the crystalline base or the crystalline HCl salt to 2 mL of each of the different buffer solutions. Vials were sonicated for 10 minutes and then stirred with a magnetic stirrer on a water bath (37° C.) for 24 hours. Samples were taken after 1, 4 and 24 hours, in replicates, and analysed by HPLC-UV. Concentrations were calculated from a calibration curve, constructed using 8 calibration standards (serial dilutions of stock solutions of the free base and the HCl salt of linaprazan glurate).

intragastric acidity = test: Clinical Phase I study of linaprazan glurate, intragastric pH; assay type: in vivo; conditions: human, plasma, oral; after 22 hours; to maintain intra-gastric pH above 4 for 24 hours; read-out: minimal plasma concentration (Cmin) of linaprazan required
[3] = Phase I and II studies; cited from earlier work
[4] = Dynamic vapour sorption (DVS) hygroscopicity; assay type: physicochemical
Procedure: Analyses were performed on an SMS DVS-1 instrument. A few mg of the substance was added into an Al pan and exposed to stepwise RH changes during two identical consecutive cycles according to 0-10-20-30-40-50-60-70-80-90-80-70-60-50-40-30-20-10-0% RH using open loop mode. The experiments were performed using a gas flow rate of 200 mL/min and at 25° C. The dm/dt criteria applied was 0.001 weight-%/min during a 5-minutes window, with a maximum allowed time of 360 minutes and a minimum allowed time of 10 minutes for all steps.
The hygroscopicity of Form 1 (obtained by crystallisation from DMF using EtOAc as the anti-solvent) and Form 2 (obtained from a slurry in MeOH) was investigated using DVS at 25° C. […] With a water uptake of 0.2% at 90% RH, Form 1 can be classified as non-hygroscopic.
The water uptake is rapid when the relative humidity is increased, and the water loss is equally rapid when the relative humidity is decreased. The sorption behaviour is typical for a channel hydrate, where the crystal structure adapts to accommodate different amounts of water depending on the surrounding humidity. The water uptake of 4.7% at 90% RH corresponds to 1.3 water molecules per linaprazan glurate HCl unit.

[5] = Pharmacokinetics of linaprazan glurate after absorption; conditions: in vivo

solubility of the free base relative to the HCl salt ([2]; FaSSGF pH 1.6, 37° C.): about 1.4 times
Compound: Cc1cccc(C)c1CNc1cc(C(=O)NCCOC(=O)CCCC(=O)O)cn2c(C)c(C)nc12 [free base]
solubility at pH 1 ([1]; pH 1): only slightly soluble | solubility in water at pH 6.8 ([1]; pH 6.8): practically insoluble

concentration at 22 h (intragastric acidity): ≥ 240 nM
Compound: Cc1cccc(C)c1CNc1cc(C(=O)NCCO)cn2c(C)c(C)nc12 [linaprazan]
elimination [3]: quickly eliminated from the body | onset of action and effect [3]: fast onset of action and full effect at first dose | tolerability [3]: well tolerated

water uptake ([4]; DVS at 25° C., 90% RH): 4.7% | water molecules per linaprazan glurate HCl unit ([4]; corresponds to water uptake at 90% RH): 1.3
Compound: Cc1cccc(C)c1CNc1cc(C(=O)NCCOC(=O)CCCC(=O)O)cn2c(C)c(C)nc12 [Form 2]
hygroscopicity (in words) ([4]; DVS at 25° C.): significant uptake of water at elevated humidities

Compound: Cc1cccc(C)c1CNc1cc(C(=O)NCCOC(=O)CCCC(=O)O)cn2c(C)c(C)nc12 [Form 1]
hygroscopicity (in words) ([4]; DVS at 25° C.): non-hygroscopic; also recorded: very low hygroscopicity

half-life in the body compared to linaprazan [5]: longer half-life | metabolism following absorption into the blood stream [5]: quickly metabolized into linaprazan | plasma concentration [5]: only very low and difficult to determine
Compound: Cc1cccc(C)c1CNc1cc(C(=O)NCCOC(=O)CCCC(=O)O)cn2c(C)c(C)nc12 [linaprazan glurate, 5-{2-[({8-[(2,6-dimethylbenzyl)amino]-2,3-dimethylimidazo[1,2-a]pyridine-6-yl}carbonyl)-amino]ethoxy}-5-oxopentanoic acid]

solubility of the HCl salt relative to the free base ([2]; FeDSGA pH 5.0, 37° C.): more than 6.5 times
Compound: Cc1cccc(C)c1CNc1cc(C(=O)NCCOC(=O)CCCC(=O)O)cn2c(C)c(C)nc12 [HCl salt]
